Source: patent publication US20250115577A1, “BCL-2 Inhibitors” (Eil Therapeutics, Inc., priority 2021, published 2025)
Like-named read-outs stand apart in the source and are kept apart here.

Columns and labels:
HEK293 cells = experiment: Cell viability assay (CellTiter-Glo), HEK293; type: cell-based; settings: 3 days of incubation
In short: (§1)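 4000 cells/well in DMEM (HEK293, adhered overnight) or RPMI (RS4-11, MOLT-4) with 10% FBS; compounds added at 0.2% DMSO final. After 3 days, viability read by CellTiter-Glo luminescence.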

[1] = tested on: caspase-3 and -7 activities in RS4-11 cells; experiment: Caspase-3/7 activation (Caspase-Glo 3/7) in RS4-11 cells; type: cell-based; settings: 3.5 h, read-out: Cas-3/7 EC50
In short: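 RS4-11 cells exposed to graded compound concentrations for 3.5 h at 37 °C, 5% CO2. Caspase-3/7 activity then read as luminescence after 30 min at rt with a DEVD-based luminogenic substrate reagent.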

BCL-2 = BCL-2 (Homo sapiens (Human), UniProt P10415); experiment: BCL-2 TR-FRET Assay (primary PPI inhibition); type: binding; settings: 60 min incubation, read-out: BCL2 IC50
In short: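 His-tagged BCL-2 (3 ng) with anti-His Tb donor, dye-labeled acceptor and BCL-2 peptide ligand; compound added at 200× stock, final DMSO 0.5%. 60 min incubation, then TR-FRET read at 340 nm excitation, 620/665 nm emission, 60 µs delay, 500 µs integration.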

MOLT-4 cells = experiment: Cell viability assay (CellTiter-Glo), MOLT-4; type: cell-based; settings: 3 days of incubation
In short: as §1

RS4-11 cells = experiment: Cell viability assay (CellTiter-Glo), RS4-11; type: cell-based; settings: 3 days of incubation
In short: as §1

BCL-xL = BCL-xL (Homo sapiens (Human), UniProt Q07817); experiment: BCL-xL TR-FRET Assay (primary PPI inhibition); type: binding; settings: 60 min incubation, read-out: BCLxL IC50
In short: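 TR-FRET competition of His-tagged BCL-xL (10.5 ng) binding to dye-labeled peptide ligand, with anti-His Tb donor; compound added from 200× stock, 0.5% DMSO final. After 60 min incubation, read at 340 nm excitation, 620/665 nm emission, 60 µs delay, 500 µs integration.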

[2] = Cell viability assay (CellTiter-Glo), HEK293; type: cell-based; settings: human, HEK293 cells, 3 days of incubation
In short: as §1

BCL-2 [G101V] = BCL-2 [G101V] (Homo sapiens (Human), UniProt P10415, G101V); experiment: BCL-2 [G101V] TR-FRET Assay (primary PPI inhibition); type: binding; settings: 60 min incubation, read-out: BCL2[G101V] IC50
Description: Example C. BCL-2 [G101V]TR-FRET Assay
The following assay concentrations and times were used: 0.22 ng/μl of BCL-2 (SinoBiological, #10195-H08E1), 5 μL of 1:100 anti-His Tb-labeled donor, 5 μL of 1:100 Dye-labeled acceptor, 5 μL of 1:40 BCL-2 Peptide Ligand (BPS Bioscience, #50223), and 2 μL of 200× test compound, with 60 min incubation time (final concentration of DMSO 0.5%). The results of the assay were read using a plate reader with the following parameters: TR FRET, 340ex/620 and 665em; 60 usec Delay; and 500 usec integration.
Instrumentation: CLARIOstar Plus (BMG LABTECH); Biomek FX for liquid handling (Beckman Coulter).

Chain of BCL-xL (Q07817 whole entry): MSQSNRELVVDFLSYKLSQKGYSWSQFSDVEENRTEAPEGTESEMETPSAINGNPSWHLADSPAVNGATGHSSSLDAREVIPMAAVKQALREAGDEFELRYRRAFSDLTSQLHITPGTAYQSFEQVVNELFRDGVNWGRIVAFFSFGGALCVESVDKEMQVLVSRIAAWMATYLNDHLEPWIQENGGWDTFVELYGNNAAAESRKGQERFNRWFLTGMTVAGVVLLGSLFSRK

Structure (SMILES) | CC50 (HEK293 cells) [nM] | EC50 ([1]; Homo sapiens) [nM] | IC50 (BCL-2) [nM] | CC50 (MOLT-4 cells; Homo sapiens, 72 h) [nM] | CC50 (RS4-11 cells; Homo sapiens, RS4-11, 72 h) [nM] | IC50 (BCL-xL) [nM] | CC50 at 3 days [2] [nM] | IC50 (BCL-2 [G101V]) [nM] | EC50 [1] [nM] | CC50 (MOLT-4 cells) [nM] | CC50 (RS4-11 cells) [nM]
COc1cccc(CN(C(=O)c2cc(-c3cc(Cl)c(F)cc3C(=O)N3Cc4ccccc4C[C@H]3CN3CCOCC3)n(C)c2C)c2ccc(C#N)cc2)c1C [Compound 29, 5-[5-chloro-4-fluoro-2-[(3S)-3-(morpholinomethyl)-3,4-dihydro-1H-isoquinoline-2-carbonyl]phenyl]-N-(4-cyanophenyl)-N-[(3-methoxy-2-methyl-phenyl)methyl]-1,2-dimethyl-pyrrole-3-carboxamide] | > 25000 | > 500 | 10 to 50 | > 10000 | 100 to 200 | – | – | – | – | – | –
COc1cccc(CN(C(=O)c2cc(-c3cc(F)c(OC(F)F)cc3C(=O)N3Cc4ccccc4C[C@H]3CN3CCOCC3)n(C)c2C)c2ccc(O)cc2)c1C [Compound 16, 5-[4-(difluoromethoxy)-5-fluoro-2-[(3S)-3-(morpholinomethyl)-3,4-dihydro-1H-isoquinoline-2-carbonyl]phenyl]-N-(4-hydroxyphenyl)-N-[(3-methoxy-2-methyl-phenyl)methyl]-1,2-dimethyl-pyrrole-3-carboxamide] | – | 200 to 500 | 5 to 10 | ≤ 5000 | > 200 | 2000 to 5000 | > 25000 | > 1000 | – | – | –
COc1cccc(CN(C(=O)c2cc(-c3cc(Cl)ccc3C(=O)N3Cc4ccccc4C[C@H]3CN3CCOCC3)n(C)c2C)c2ccc3[nH]ncc3c2)c1C [Compound 70, 5-[5-chloro-2-[(3S)-3-(morpholinomethyl)-3,4-dihydro-1H-isoquinoline-2-carbonyl]phenyl]-N-(1H-indazol-5-yl)-N-[(3-methoxy-2-methyl-phenyl)methyl]-1,2-dimethyl-pyrrole-3-carboxamide] | – | > 500 | 5 to 10 | ≤ 5000 | > 200 | > 5000 | > 25000 | > 1000 | – | – | –
COc1cccc(CN(C(=O)c2cc(-c3cc(Cl)c(F)cc3C(=O)N3Cc4ccccc4C[C@H]3CN3CCOCC3)n(C)c2C)c2ccc(C#N)cc2)c1C [Compound 73, 5-[5-chloro-4-fluoro-2-[(3S)-3-(morpholinomethyl)-3,4-dihydro-1H-isoquinoline-2-carbonyl]phenyl]-N-(4-cyanophenyl)-N-[(3-methoxy-2-methyl-phenyl)methyl]-1,2-dimethyl-pyrrole-3-carboxamide] | 10000 to 25000 | – | > 50 | – | – | 2000 to 5000 | – | – | > 500 | > 10000 | > 200
COc1cccc(CN(C(=O)c2cc(-c3cc([N+](=O)[O-])ccc3C(=O)N3Cc4ccccc4C[C@H]3CN3CCOCC3)n(C)c2C)c2ccc3[nH]ncc3c2)c1C [Compound 65, N-(1H-indazol-5-yl)-N-[(3-methoxy-2-methyl-phenyl)methyl]-1,2-dimethyl-5-[2-[(3S)-3-(morpholinomethyl)-3,4-dihydro-1H-isoquinoline-2-carbonyl]-5-nitro-phenyl]pyrrole-3-carboxamide] | – | > 500 | 10 to 50 | ≤ 5000 | > 200 | > 5000 | 10000 to 25000 | > 1000 | – | – | –
